Measured values as given in US20250161297A1, “COMPOSITIONS AND METHODS FOR INHIBITING FSP1” (THE REGENTS OF THE UNIVERSITY OF CALIFORNIA, priority 2022, published 2025).

Molecular target: T1, recombinant purified FSP1 (Homo sapiens, UniProt Q9BRQ8)
T1 construct: made in house; host or cells: E. coli LOBSTR-BL21 (DE3)
T1 sequence (Q9BRQ8 1-373): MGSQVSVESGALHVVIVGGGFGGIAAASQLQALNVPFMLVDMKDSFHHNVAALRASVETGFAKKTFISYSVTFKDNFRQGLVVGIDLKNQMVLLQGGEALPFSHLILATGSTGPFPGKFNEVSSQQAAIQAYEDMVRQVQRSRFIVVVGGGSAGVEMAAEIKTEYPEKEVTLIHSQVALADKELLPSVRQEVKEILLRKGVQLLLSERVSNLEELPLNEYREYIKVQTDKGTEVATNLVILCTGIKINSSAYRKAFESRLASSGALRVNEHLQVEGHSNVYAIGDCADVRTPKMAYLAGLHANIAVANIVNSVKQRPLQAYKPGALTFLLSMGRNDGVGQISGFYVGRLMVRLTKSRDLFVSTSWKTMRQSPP
Assay: FSP1 enzyme kinetics with NADH, CoQ-coumarin and CoQ1
Assay type: biochemical
Method: FSP1 Kinetics (NADH): To measure FSP1 kinetics, FSEN1 was dissolved and diluted in DMSO, and recombinant purified FSP1 was diluted in PBS. 0.5 μL FSEN1 and 12.5 μL FSP1 were mixed and incubated for 30 minutes in a NBS polystyrene 384-well plate (Corning Ref: 3640) at RT. Vehicle control wells included 0.5 μL DMSO and were absent of any FSEN1. NADH (Millipore Cat: 481913) was then dissolved and diluted in PBS and added to the plate wells. CoQ-Coumarin (Cayman Item: 29554) was dissolved in DMSO, diluted in PBS, and added to the plate wells to start the reaction. Final well volume was 25 μL, and final concentrations were 25 nM FSP1, 10UM CoQ-Coumarin, 1-50 μM NADH, and 50-500 nM FSEN1. […] Reduced CoQ-Coumarin fluorescence (Ex: 405 nm, Em: 475 nm) was measured as read-out of enzymatic product formation on a kinetic cycle with an interval time of 20 seconds at RT. […] Raw data from 3 biological replicates were then plotted and initial slopes were calculated using a linear regression in prism (GraphPad).
FSP1 Kinetics (CoQ-Coumarin): To measure FSP1 kinetics, FSEN1 was dissolved and diluted in DMSO, and recombinant purified FSP1 was diluted in PBS. […] Reduced CoQ-Coumarin fluorescence (Ex: 405 nm, Em: 475 nm) was measured as read-out of enzymatic product formation on a kinetic cycle with an interval time of 15 seconds at RT. […]

COc1ccc(N2CCN(Cc3cn4c(-c5ccc(Br)cc5)nnc4s3)CC2)cc1 [FSEN1]
change in Kcat (as FSEN1 concentrations increased): decrease in Kcat values
mechanism of FSP1 inhibition (increasing NADH and CoQ-coumarin, Lineweaver-Burke plots parallel): uncompetitive inhibitor
